The test system of data set [1] is cell-free extract (CE) of Sphingopyxis sp. USTB-05. The conditions noted are these: cited from earlier work.
The subject of the next data set is USTB-05-A mutants. The conditions noted are these: cited from earlier work.
Data set [2] has as its system MlrA point mutants H260A and E265A. The conditions noted are these: cited from earlier work.
Data set [3] deals with CE of recombinant pET30a(+)/BL21(DE3). Type of data set: in vitro ADME, E. coli. The conditions noted are these: CE of pET30a(+)/BL21(DE3) added at 12 h; PBS; 30 °C; HPLC-UV 238 nm; Figure S1. As to the method:
The experiments were carried out with five treatments as following: • Control groups for treatment A and treatment C: the CEs of recombinant bacteria pGEX-4T-1/BL21(DE3) without protein USTB-05-A and recombinant bacteria pET30a(+)/BL21(DE3) without protein USTB-05-C were added into two tubes with PBS containing NOD, respectively. • Treatment A: the CE of recombinant bacteria pGEX-4T-1/USTB-05-A/BL21(DE3) containing crude protein USTB-05-A was added into PBS containing NOD. • Treatment C: the CE of recombinant bacteria pET30a(+)/USTB-05-C/BL21(DE3) containing crude protein USTB-05-C was added into PBS containing NOD. • Treatment AC: at 0 h, the CE containing crude protein USTB-05-A was added into PBS containing NOD. At 12 h, the CE containing crude protein USTB-05-C was added to the above solution. • Control group for treatment A and treatment C: at 0 h, the CE containing crude protein USTB-05-A was added into the test tubes with PBS containing NOD. At 12 h, the CE of pET30a(+)/BL21(DE3) without protein USTB-05-C was added to the above solution. […]
The concentration of NOD was detected by high performance liquid chromatography (HPLC) (LC10ATVP, Shimadzu Co., Ltd., Tokyo, Japan) with a UV diode array detector at 238 nm. […] The spectra of NOD and its biodegradation products were detected at the time of HPLC analysis.

For another data set, the system named is USTB-05-A. The settings on record: initial NOD 13.7 mg L^−1; CE protein 158 mg L^−1; PBS; 30 °C, 200 rpm; 12 h to 24 h; HPLC-UV 238 nm.
For a further data set, the system named is USTB-05-C. The settings on record: CE protein 165 mg L^−1 added at 12 h; followed from 13 h until 24 h; PBS; 30 °C, 200 rpm; HPLC-UV 238 nm.

Some results are limits rather than exact numbers.

For the molecule MC-YR, in data set [1], the “time to complete elimination by CE” value is at most 10 h.

Regarding MC-LR, the “time to complete biodegradation by CE” value in data set [1] is at most 3 h. Also, in the data set with USTB-05-A mutants, the “MC-LR biodegradation by N264A mutant” value is “significant decrease in MlrA activity”; the “MC-LR biodegradation by W176A and W201A mutants” value is “decrease in the reaction rate to some extent”; the “MC-LR biodegradation by point mutants E172A, H205A and H260A” value was “complete loss of enzymatic activity”. Moreover, the “MC-LR biodegradation by MlrA point mutants H260A and E265A” value in data set [2] is reported as “no activity”.

With `C/C=C(/C(=O)N[C@@H](C(=O)O)[C@H](C)C(=O)N[C@@H](CCCNC(=N)N)C(=O)O)N(C)C(=O)CC[C@@H](NC(=O)[C@@H](C)[C@@H](N)/C=C/C(C)=C/[C@H](C)[C@H](Cc1ccccc1)OC)C(=O)O` [product A], in data set [3], the “concentration of product A with control CE without USTB-05-C (control group of treatment AC)” value is recorded as “constant”. Also, in the data set on USTB-05-A, the “peaks after the first 12 h until 24 h with CE containing USTB-05-A only (treatment A)” value is on record as “remained constant”. Further, the “change of product A peak after addition of CE containing USTB-05-C (treatment AC)” value with USTB-05-C is “decreased and disappeared”.

These data come from PMC6832836 (Toxins, 2019).
